Assay [1] relates to U-937. As to the kind of experiment: Induction of apoptosis in human U-937 cells assessed as viable cells at 0.6 uM incubated for 48 hrs by annexin V-FITC/PI satining based flow cytometry (reference value: 93.7 %). It counts as functional. The conditions noted are these: read-out: Activity. On the technique in general: Flow cytometry measures light scatter and fluorescence of single cells or particles in a stream.

Assay [2] deals with U-937. As to the kind of experiment: Induction of apoptosis in human U-937 cells assessed as late apoptotic cells at 2.5 uM incubated for 48 hrs by annexin V-FITC/PI satining based flow cytometry (reference value: 4.23 %). It counts as functional.
The subject of assay [3] is U-937. As to the kind of experiment: Induction of apoptosis in human U-937 cells assessed as late apoptotic cells at 5 uM incubated for 48 hrs by annexin V-FITC/PI satining based flow cytometry (reference value: 4.23 %). Format: functional.
The subject of assay [4] is HL-60. As to the kind of experiment: Downregulation of Pol-II S2 level in human HL-60 cells incubated for 6 hrs by Western blot analysis. Format: functional, cell-based. The conditions noted are these: dose <= 1000.0 nM. In general terms: Immunoblotting shows a protein as a band on a membrane.
Assay [5] relates to HL-60. As to the kind of experiment: Induction of apoptosis in human HL-60 cells assessed as early apoptotic cells at 0.2 uM incubated for 48 hrs by annexin V-FITC/PI satining based flow cytometry (reference value: 1.24 %). It counts as functional.
Assay [6] relates to HL-60. As to the kind of experiment: Induction of apoptosis in human HL-60 cells assessed as necrotic cells at 0.5 uM incubated for 48 hrs by annexin V-FITC/PI satining based flow cytometry (reference value: 0.00 %). Format: functional.
The subject of assay [7] is HL-60. In words: Induction of differentiation in human HL-60 cells assessed as increase in CD11b positive cells at 2 uM incubated for 24 hrs by FITC staining based flow cytometry (reference value: 1.45 %). It counts as functional.

Molecules are shown by their SMILES.

For the molecule `Nc1cc(F)ccc1NC(=O)c1ccc(CNC(=O)/C=C/c2cccnc2)cc1` [TUCIDINOSTAT], the viability at 0.6 µM in the assay on U-937 [1] came out at 93.5%. In addition, the Activity in the assay on U-937 [2] worked out at 9.77%; with U-937 [3], 22.7%.
Regarding `Nc1ccccc1NC(=O)c1ccc(NC(=O)c2n[nH]cc2NC(=O)c2c(Cl)cccc2Cl)cc1`, the Activity entry with HL-60 [4] is “Dose-Dependent Effect”; in the assay on HL-60 [5] it was 1.61%; in the assay on HL-60 [6], 0.01%; in the assay on HL-60 [7], 62.2%.

For the origin of these results see ChEMBL document CHEMBL5346903, “Discovery of novel and bioavailable histone deacetylases and cyclin-dependent kinases dual inhibitor to impair the stemness of leukemia cells” (Eur J Med Chem, 2023).
